From ChEMBL document CHEMBL4610040, “Addressing hERG activity while maintaining favorable potency, selectivity and pharmacokinetic properties of PPARδ modulators” (Bioorg Med Chem Lett, 2020)

Tests used:
hERG (KCNH2) = hERG (KCNH2) (Homo sapiens, UniProt Q12809); assay: Inhibition of human ERG expressed in HEK293 cells at 10 uM by semi-automatic patch clamp assay relative to control; format: cell-based; details: HEK293 cells that express hERG
[1] = molecular target: T1, Peroxisome proliferator-activated receptor gamma (Homo sapiens, UniProt P37231); assay: Transactivation of GAL4-fused human PPARgamma expressed in African green monkey CV1 cells by luciferase reporter gene assay; format: cell-based, CV-1
T1 sequence (P37231 whole entry): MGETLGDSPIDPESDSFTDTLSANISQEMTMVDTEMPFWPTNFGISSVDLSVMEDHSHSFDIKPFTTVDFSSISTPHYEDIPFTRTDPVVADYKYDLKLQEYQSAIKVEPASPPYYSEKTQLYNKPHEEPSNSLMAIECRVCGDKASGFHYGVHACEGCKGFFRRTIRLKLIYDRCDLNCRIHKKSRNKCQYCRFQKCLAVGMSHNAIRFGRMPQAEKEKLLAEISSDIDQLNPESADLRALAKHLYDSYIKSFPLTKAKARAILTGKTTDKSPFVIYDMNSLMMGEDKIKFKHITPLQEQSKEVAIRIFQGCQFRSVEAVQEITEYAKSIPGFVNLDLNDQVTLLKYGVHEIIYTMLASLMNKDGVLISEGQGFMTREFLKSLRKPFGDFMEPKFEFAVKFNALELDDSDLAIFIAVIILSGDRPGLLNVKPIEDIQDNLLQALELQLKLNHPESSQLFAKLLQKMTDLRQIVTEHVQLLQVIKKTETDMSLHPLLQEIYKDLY

[2] = AUC (0 to infinity) in CD-1 mouse at 1 mg/kg, iv or 3 mg/kg, po; format: ADME, organism-based; details: in vivo
[3] = Oral bioavailability in CD-1 mouse at 3 mg/kg; format: ADME, organism-based; details: in vivo
[4] = molecular target: T2, Peroxisome proliferator-activated receptor alpha (Homo sapiens, UniProt Q07869); assay: Transactivation of GAL4-fused human PPARalpha expressed in African green monkey CV1 cells by luciferase reporter gene assay; format: cell-based, CV-1
T2 sequence (Q07869 whole entry): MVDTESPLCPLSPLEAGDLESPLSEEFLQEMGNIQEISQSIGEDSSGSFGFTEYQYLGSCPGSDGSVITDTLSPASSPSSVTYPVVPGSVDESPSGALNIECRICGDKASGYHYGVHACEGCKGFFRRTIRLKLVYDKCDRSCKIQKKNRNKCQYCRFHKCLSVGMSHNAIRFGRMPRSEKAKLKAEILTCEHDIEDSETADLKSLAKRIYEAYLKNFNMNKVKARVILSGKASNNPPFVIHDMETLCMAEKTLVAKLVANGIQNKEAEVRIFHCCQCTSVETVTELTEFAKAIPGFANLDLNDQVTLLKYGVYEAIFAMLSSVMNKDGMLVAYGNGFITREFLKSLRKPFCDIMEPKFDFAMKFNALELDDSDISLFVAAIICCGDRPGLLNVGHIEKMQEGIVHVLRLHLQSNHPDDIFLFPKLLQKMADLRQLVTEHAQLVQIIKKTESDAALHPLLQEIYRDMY

[5] = Elimination half life in CD-1 mouse at 1 mg/kg, iv or 3 mg/kg, po; format: ADME, organism-based; details: in vivo, read-out: beta t1/2 (converted)
[6] = molecular target: Voltage-gated inwardly rectifying potassium channel KCNH2 (Homo sapiens, UniProt Q12809); assay: Inhibition of human ERG expressed in HEK293 cells by semi-automatic patch clamp assay; format: cell-based
Voltage-gated inwardly rectifying potassium channel KCNH2, sequence (Q12809 whole entry): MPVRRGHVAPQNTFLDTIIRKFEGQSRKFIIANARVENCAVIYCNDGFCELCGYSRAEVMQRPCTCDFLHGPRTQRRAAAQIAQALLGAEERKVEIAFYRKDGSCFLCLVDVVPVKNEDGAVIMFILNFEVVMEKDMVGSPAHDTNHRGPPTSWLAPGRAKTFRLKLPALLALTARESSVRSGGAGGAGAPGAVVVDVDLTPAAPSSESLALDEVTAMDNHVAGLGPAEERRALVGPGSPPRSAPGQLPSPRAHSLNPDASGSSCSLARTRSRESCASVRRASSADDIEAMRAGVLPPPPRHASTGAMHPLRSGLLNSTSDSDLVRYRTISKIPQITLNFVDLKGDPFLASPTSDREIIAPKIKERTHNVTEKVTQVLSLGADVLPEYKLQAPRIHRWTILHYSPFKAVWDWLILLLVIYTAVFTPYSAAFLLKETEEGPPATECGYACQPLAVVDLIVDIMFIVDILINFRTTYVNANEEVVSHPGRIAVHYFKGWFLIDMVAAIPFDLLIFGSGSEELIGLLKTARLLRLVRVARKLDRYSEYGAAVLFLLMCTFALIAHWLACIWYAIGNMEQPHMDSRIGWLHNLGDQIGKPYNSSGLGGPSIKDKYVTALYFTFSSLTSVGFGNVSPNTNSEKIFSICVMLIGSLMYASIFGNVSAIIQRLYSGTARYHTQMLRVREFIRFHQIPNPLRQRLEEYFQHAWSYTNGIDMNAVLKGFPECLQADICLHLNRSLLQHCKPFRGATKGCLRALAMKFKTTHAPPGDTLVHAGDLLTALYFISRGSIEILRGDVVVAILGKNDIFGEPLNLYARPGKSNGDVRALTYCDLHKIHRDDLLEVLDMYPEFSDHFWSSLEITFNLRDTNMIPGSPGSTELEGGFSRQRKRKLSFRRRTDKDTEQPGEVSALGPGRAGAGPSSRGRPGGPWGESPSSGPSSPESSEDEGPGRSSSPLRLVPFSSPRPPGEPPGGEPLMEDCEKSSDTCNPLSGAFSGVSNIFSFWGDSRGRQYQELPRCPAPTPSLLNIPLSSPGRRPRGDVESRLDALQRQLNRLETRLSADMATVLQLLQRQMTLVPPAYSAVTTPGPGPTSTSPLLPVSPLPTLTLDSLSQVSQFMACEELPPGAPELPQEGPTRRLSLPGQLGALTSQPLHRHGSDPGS

hERG (KCNH2), sequence (Q12809 whole entry, the tested form may be a part): as the sequence (Q12809 whole entry) above

CN(Cc1ccccc1OCCCCCC(=O)O)C(=O)c1ccc(-c2ccco2)cc1
inhibition at 10 µM (hERG (KCNH2)): < 15%

C/C(=C\COc1ccccc1Cc1sc(C)nc1-c1ccc2oc(C)cc2c1)CCC(=O)O
inhibition at 10 µM (hERG (KCNH2)): 14%

Cc1cc2cc(-c3ncc(C)n3Cc3ccccc3OCCCCCC(=O)O)ccc2o1
inhibition at 10 µM (hERG (KCNH2)): 51%

Cc1cnc(-c2ccc(C#N)cc2)n1Cc1ccccc1OCCC[C@@H](C)CC(=O)O
inhibition at 10 µM (hERG (KCNH2)): 15%

C[C@H](CCCOc1ccccc1Cn1c(Cl)cnc1-c1ccc(C(F)(F)F)cc1)CC(=O)O
EC50 [1]: > 100 µM
AUC(0-inf) [2]: 3880 ng·h/mL
bioavailability [3]: 100%
EC50 [4]: > 100 µM
half-life [5]: 3.5 h

Cc1cnc(-c2ccc(-c3ccco3)cc2)n1Cc1ccccc1OCCCCCC(=O)O
IC50 [6]: 5.5 µM

Cc1nc(-c2cc(F)c(-c3ccco3)c(F)c2)c(Cc2ccccc2OCCC[C@@H](C)CC(=O)O)s1
inhibition at 10 µM (hERG (KCNH2)): 4%

C/C(=C\COc1ccccc1Cc1c(C)cnn1-c1ccc(C(F)(F)F)cc1)CCC(=O)O
inhibition at 10 µM (hERG (KCNH2)): 4%

C[C@H](CCCOc1ccccc1Cn1c(C(F)(F)F)cnc1-c1ccc(C#N)cc1)CC(=O)O
EC50 [1]: > 100 µM
AUC(0-inf) [2]: 14700 ng·h/mL
EC50 [4]: > 100 µM
inhibition at 10 µM (hERG (KCNH2)): 4%

C[C@H](CCCOc1ccccc1Cn1c(C(F)(F)F)cnc1-c1ccc(C(F)(F)F)cc1)CC(=O)O
EC50 [1]: > 100 µM
AUC(0-inf) [2]: 6960 ng·h/mL
bioavailability [3]: 70%
EC50 [4]: > 100 µM
half-life [5]: 5.8 h
inhibition at 10 µM (hERG (KCNH2)): 5.7%

Cc1cnc(-c2ccc(OC(F)(F)F)cc2)n1Cc1ccccc1OCCC[C@@H](C)CC(=O)O
IC50 [6]: 10 µM
